Reference: PMC7044277 (Nature Communications, 2020)
Values joined by “and” are separate entries in the source; they are usually repeats but may differ in a detail not shown here. Equal entries are not always repeated.

What was measured:
Type in all cases: cell-based
[1] = target: T1, 320 non-olfactory GPCRs (Homo sapiens, UniProt Q8NFJ6); settings: receptor PK2; replicate values, Fig_4g
T1 construct: expressed in transfected cells; host or cells: HTLA cells

[2] = target: T2, 320 non-olfactory GPCRs (Homo sapiens, UniProt Q96LB0); settings: receptor MRGPRX3; replicate values, Fig_4g
T2 construct: expressed in transfected cells; host or cells: HTLA cells

[3] = target: T3, 320 non-olfactory GPCRs (Homo sapiens, UniProt P32249)
T3 construct: expressed in transfected cells; host or cells: HTLA cells

[4] = target: 320 non-olfactory GPCRs (Homo sapiens, UniProt P41146); settings: receptor OPRL1; replicate values, Fig_4g
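Throughout, for Fold of Basal: compound tested at 1 µM final concentration.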
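Throughout, for GPCRome agonism screen response: fold over basal response of each receptor without drug.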

Sequence of 320 non-olfactory GPCRs (Homo sapiens, UniProt P41146) (P41146 whole entry): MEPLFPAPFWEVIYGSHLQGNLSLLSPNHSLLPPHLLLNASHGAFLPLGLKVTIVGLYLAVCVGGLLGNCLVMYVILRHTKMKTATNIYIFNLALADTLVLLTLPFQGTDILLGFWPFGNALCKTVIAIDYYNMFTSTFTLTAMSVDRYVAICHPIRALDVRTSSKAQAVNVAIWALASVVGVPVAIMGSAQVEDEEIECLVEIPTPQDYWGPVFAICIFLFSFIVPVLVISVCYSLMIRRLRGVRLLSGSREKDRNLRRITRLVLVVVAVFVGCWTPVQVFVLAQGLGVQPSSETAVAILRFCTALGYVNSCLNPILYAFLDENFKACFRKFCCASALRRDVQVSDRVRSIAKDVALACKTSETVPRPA
T3 sequence (P32249 whole entry): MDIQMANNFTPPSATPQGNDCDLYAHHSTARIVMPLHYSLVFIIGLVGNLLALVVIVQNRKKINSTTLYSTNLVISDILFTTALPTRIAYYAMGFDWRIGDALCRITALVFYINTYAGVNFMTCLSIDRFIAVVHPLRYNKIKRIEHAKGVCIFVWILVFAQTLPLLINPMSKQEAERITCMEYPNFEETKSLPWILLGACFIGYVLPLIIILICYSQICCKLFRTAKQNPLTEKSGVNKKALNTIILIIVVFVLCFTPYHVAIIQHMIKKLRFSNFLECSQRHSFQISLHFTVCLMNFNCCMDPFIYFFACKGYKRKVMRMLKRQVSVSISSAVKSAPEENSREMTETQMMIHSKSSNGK
T2 sequence (Q96LB0 whole entry): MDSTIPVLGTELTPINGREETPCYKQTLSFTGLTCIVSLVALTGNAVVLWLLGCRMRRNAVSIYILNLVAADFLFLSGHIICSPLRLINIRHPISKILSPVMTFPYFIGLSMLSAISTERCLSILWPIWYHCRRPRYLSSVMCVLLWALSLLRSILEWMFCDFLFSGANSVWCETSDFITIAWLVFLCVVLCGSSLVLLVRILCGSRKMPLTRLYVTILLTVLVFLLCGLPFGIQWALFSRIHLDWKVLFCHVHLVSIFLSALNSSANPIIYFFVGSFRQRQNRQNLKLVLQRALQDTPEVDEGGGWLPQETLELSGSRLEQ
T1 sequence (Q8NFJ6 whole entry): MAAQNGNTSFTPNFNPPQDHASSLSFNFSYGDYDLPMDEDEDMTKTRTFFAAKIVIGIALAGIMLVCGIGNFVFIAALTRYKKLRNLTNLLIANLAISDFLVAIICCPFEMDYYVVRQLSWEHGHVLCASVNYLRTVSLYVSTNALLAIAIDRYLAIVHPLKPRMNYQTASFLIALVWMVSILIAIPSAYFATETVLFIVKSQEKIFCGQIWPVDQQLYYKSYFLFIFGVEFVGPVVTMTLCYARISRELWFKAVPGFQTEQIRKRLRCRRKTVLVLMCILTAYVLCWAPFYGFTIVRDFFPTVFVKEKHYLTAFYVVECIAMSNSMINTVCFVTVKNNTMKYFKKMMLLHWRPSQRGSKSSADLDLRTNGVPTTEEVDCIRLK

Compound: CCOc1cccc2cc(C(C)NCC3(O)CCCCC3)oc12 (stereo not shown) [O4LE6]
- GPCRome agonism screen response [1]: 0.6601 and 1.45 and 1.515 and 1.156
- GPCRome agonism screen response [2]: 0.501 and 0.6269 and 0.3987 and 0.4556
- Fold of Basal [3]: 2.191 and 1.736 and 1.097 and 1.536
- GPCRome agonism screen response [4]: 0.6174 and 0.5517 and 0.7699 and 0.8115
